Measured values published in patent US9370183B2, “Use of ALS inhibitor herbicides for control of unwanted vegetation in ALS inhibitor herbicide tolerant Brassica, such as B. napus, plants” (Bayer Intellectual Property GmbH, priority 2011, dated 2016).
Where two headings read alike, the source gives them in different places.

How the values were obtained:
B. napus mutant FM 202 = type: in vivo, Brassica napus; conditions: spray at BBCH 12-13 with Mero 1 l/ha, visual scoring 14 days after application, 0%=no damage, 100%=all plants dead
Description: (§1) The individual components herbicide and surfactant with regard to type and application rate as stated in table 1 were added with stirring to a water application rate of 300 l/ha so that a homogeneous spray mixture was formed. The adjuvant Mero® (Bayer CropScience AG: active ingredient is 81% rapeseed oil methyl ester) was always added to the spray liquids with a use rate of one l/ha.
(§2) Seeds of B. napus were sown in a sandy loam soil and placed in a climate chamber in a greenhouse under good growth conditions (16 h light, temperature day 14° C., night: 8° C.). The plants (10 per experiment) were grown up to growth stage of BBCH 12 to BBCH 13. […] After the treatment, the plants were returned to the climate chamber.
(§3) Visual scoring was carried out using a percentage scale of 0%=no damage to 100%=all plants dead.

[1] = tested on: B. napus wild type variety SR002201; assay: Greenhouse herbicide injury, visual scoring, wild type variety; type: in vivo, Brassica napus; conditions: spray at BBCH 12-13 with Mero 1 l/ha, visual scoring 14 days after application, 0%=no damage, 100%=all plants dead
Description: as §1, §2, §3

[2] = biological target: T1, A. thaliana S653N-mutant ALS (Arabidopsis thaliana, UniProt P17597, E575Q/S653N); assay: biochemical; conditions: negative logarithm of the molar concentration inhibiting the enzyme activity by 50%, crude extract of E. coli expressing A. thaliana S653N ALS, 75 min, 30° C.; for IC50: read-out: ALS PI50 S653N (converted)
T1 construct: vector-encoded fusion of pET-32a(+) (Trx/His/S-tag by own knowledge of the vector); made in house; host or cells: Escherichia coli AD494
T1 sequence (P17597 56-670 E575Q/S653N): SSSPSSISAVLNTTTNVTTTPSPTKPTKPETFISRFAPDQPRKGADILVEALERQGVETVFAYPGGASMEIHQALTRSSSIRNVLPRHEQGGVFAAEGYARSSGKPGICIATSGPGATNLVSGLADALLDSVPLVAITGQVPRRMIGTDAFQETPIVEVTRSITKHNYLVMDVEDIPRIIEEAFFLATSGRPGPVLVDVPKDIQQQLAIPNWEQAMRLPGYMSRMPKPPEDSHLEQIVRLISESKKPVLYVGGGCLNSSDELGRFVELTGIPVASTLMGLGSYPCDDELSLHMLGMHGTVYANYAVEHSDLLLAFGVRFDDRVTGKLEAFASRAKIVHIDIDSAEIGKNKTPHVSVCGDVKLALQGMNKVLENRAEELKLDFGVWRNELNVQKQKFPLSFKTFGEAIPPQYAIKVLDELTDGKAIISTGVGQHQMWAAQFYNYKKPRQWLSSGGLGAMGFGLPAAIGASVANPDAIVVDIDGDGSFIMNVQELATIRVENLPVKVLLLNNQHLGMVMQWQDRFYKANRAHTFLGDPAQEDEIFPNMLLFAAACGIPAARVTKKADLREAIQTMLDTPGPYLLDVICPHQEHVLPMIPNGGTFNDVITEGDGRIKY
Description: (§4) Bacteria were grown at 37° C. in LB-medium containing 100 mg/l carbenicillin and 25 mg/l canamycin, induced with 1 mM isopropyl-β-D-thiogalactopyranoside at an OD600 of 0.6, cultivated for 16 hours at 18° C. and harvested by centrifugation. Bacterial pellets were resuspended in 100 mM sodium phosphate buffer pH 7.0 containing 0.1 mM thiamine-pyrophosphate, 1 mM MgCl2, and 1 μM FAD at a concentration of 1 gram wet weight per 25 ml of buffer and disrupted by sonification. The crude protein extract obtained after centrifugation was used for ALS activity measurements.
(§5) Assays were initiated by adding enzyme and terminated after 75 min incubation at 30° C. by the addition of 40 μl 0.5 M H2SO4.

[3] = biological target: T2, A. thaliana A205V-mutant ALS (Arabidopsis thaliana, UniProt P17597, A205V/E575Q); assay: biochemical; conditions: negative logarithm of the molar concentration inhibiting the enzyme activity by 50%, crude extract of E. coli expressing A. thaliana A205V ALS, 75 min, 30° C.; for IC50: read-out: ALS PI50 A205V (converted)
T2 construct: vector-encoded fusion of pET-32a(+) (Trx/His/S-tag by own knowledge of the vector); made in house; host or cells: Escherichia coli AD494
T2 sequence (P17597 56-670 A205V/E575Q): as the sequence (P17597 56-670 E575Q/S653N) above, with A150V, N598S counted along it
Description: as §4, §5

[4] = biological target: T3, A. thaliana wild-type ALS (Arabidopsis thaliana, UniProt P17597, E575Q); assay: biochemical; conditions: negative logarithm of the molar concentration inhibiting the enzyme activity by 50%, crude extract of E. coli expressing A. thaliana wild-type ALS, 75 min, 30° C.; for IC50: read-out: ALS PI50 WT (converted)
T3 construct: vector-encoded fusion of pET-32a(+) (Trx/His/S-tag by own knowledge of the vector); made in house; host or cells: Escherichia coli AD494
T3 sequence (P17597 56-670 E575Q): as the sequence (P17597 56-670 E575Q/S653N) above, with N598S counted along it
Description: as §4, §5

[5] = biological target: T4, A. thaliana W574L-mutant ALS (Arabidopsis thaliana, UniProt P17597, E575Q/W574L); type: biochemical; conditions: negative logarithm of the molar concentration inhibiting the enzyme activity by 50%; crude extract of E. coli expressing A. thaliana W574L ALS; 75 min, 30° C.
T4 construct: vector-encoded fusion of pET-32a(+) (Trx/His/S-tag by own knowledge of the vector); made in house; host or cells: Escherichia coli AD494
T4 sequence (P17597 56-670 W574L/E575Q): as the sequence (P17597 56-670 E575Q/S653N) above, with W519L, N598S counted along it
Description: as §4, §5

Row | Structure (SMILES) | IC50 [2] [nM] | IC50 [3] [nM] | IC50 [4] [nM] | other results
1 | COC(=O)c1ccccc1S(=O)(=O)NC(=O)N(C)c1nc(C)nc(OC)n1 |  |  |  | Herbicide injury on BRSNS [%] FM 202 (B. napus mutant FM 202; 30 g a.i./ha): 3%; Herbicide injury on BRSNS [%] SR002201 ([1]; 30 g a.i./ha): 95%
2 | COc1cc(OC)nc(NC(=O)NS(=O)(=O)N(C)S(C)(=O)=O)n1 [Amidosulfuron, amidosulfuron] | 1.26 | 12600 |  | 
3 | COc1cc(OC)nc(Oc2cccc(Oc3nc(OC)cc(OC)n3)c2C(=O)O)n1 [Bispyribac-sodium, bispyribac-sodium] | 158 | 100 | 15.8 | 
4 | COc1nc(C)nc(NC(=O)NS(=O)(=O)c2ccccc2Cl)n1 [Chlorsulfuron, chlorsulfuron] |  |  |  | Herbicide injury on BRSNS [%] FM 202 (B. napus mutant FM 202; 9 g a.i./ha): 0%; Herbicide injury on BRSNS [%] SR002201 ([1]; 9 g a.i./ha): 97%
5 | CCOc1ccccc1OS(=O)(=O)NC(=O)Nc1nc(OC)cc(OC)n1 [Ethoxysulfuron, ethoxysulfuron] |  |  |  | Herbicide injury on BRSNS [%] FM 202 (B. napus mutant FM 202; 60 g a.i./ha): 0%; Herbicide injury on BRSNS [%] SR002201 ([1]; 60 g a.i./ha): 98%
6 | COc1cc(OC)nc(NC(=O)NS(=O)(=O)c2ncccc2C(F)(F)F)n1 [Flazasulfuron, flazasulfuron] |  | 15.8 | 2.51 | 
7 | COc1ncc(F)c2nc(S(=O)(=O)Nc3c(F)cccc3F)nn12 [Florasulam, florasulam] |  |  |  | ALS PI50 S653N [2]: 7.6; ALS PI50 A205V [3]: 6.1; ALS PI50 WT [4]: 7.9; ALS PI50 W574L [5]: 4.6
8 | COc1cc(OC)nc(NC(=O)NS(=O)(=O)c2cc(NC=O)ccc2C(=O)N(C)C)n1 [Foramsulfuron, foramsulfuron] |  | 501 |  | 
9 | COCc1cnc(C2=NC(C)(C(C)C)C(=O)N2)c(C(=O)O)c1 (stereo not shown) [Imazamox, imazamox] |  | > 100000 |  | Herbicide injury on BRSNS [%] FM 202 (B. napus mutant FM 202; 40 g a.i./ha): 0%; Herbicide injury on BRSNS [%] SR002201 ([1]; 40 g a.i./ha): 93%
10 | COC(=O)c1ccc(I)cc1S(=O)(=O)[N-]C(=O)Nc1nc(C)nc(OC)n1.[Na+] [Iodosulfuron-methy-sodium, iodosulfuron-methyl-sodium] |  |  |  | Herbicide injury on BRSNS [%] FM 202 (B. napus mutant FM 202; 7 g a.i./ha): 0%; Herbicide injury on BRSNS [%] SR002201 ([1]; 7 g a.i./ha): 95%
11 | COC(=O)c1ccc(CNS(C)(=O)=O)cc1S(=O)(=O)NC(=O)Nc1nc(OC)cc(OC)n1 [Mesosulfuron-methyl, mesosulfuron-methyl] |  |  |  | Herbicide injury on BRSNS [%] FM 202 (B. napus mutant FM 202; 15 g a.i./ha): 0%; Herbicide injury on BRSNS [%] SR002201 ([1]; 15 g a.i./ha): 90%
12 | COc1cc(OC)n2nc(S(=O)(=O)Nc3c(Cl)ccc(C)c3Cl)nc2n1 [Metosulam, metosulam] | 39.8 | 794 | 3.16 | 
13 | COC(=O)c1ccccc1S(=O)(=O)NC(=O)Nc1nc(C)nc(OC)n1 [Metsulfuron-methyl, metsulfuron-methyl] |  |  |  | Herbicide injury on BRSNS [%] FM 202 (B. napus mutant FM 202; 8 g a.i./ha): 0%; Herbicide injury on BRSNS [%] SR002201 ([1]; 8 g a.i./ha): 93%
14 | COc1cc(OC)nc(NC(=O)NS(=O)(=O)c2ncccc2C(=O)N(C)C)n1 [Nicosulfuron, nicosulfuron] | 1580 | 1000 | 63.1 | 
15 | CCS(=O)(=O)c1cccnc1S(=O)(=O)NC(=O)Nc1nc(OC)cc(OC)n1 [Rimsulfuron, rimsulfuron] | 2.51 | 158 | 10 | 
16 | CCS(=O)(=O)c1nc2ccccn2c1S(=O)(=O)NC(=O)Nc1nc(OC)cc(OC)n1 [Sulfosulfuron, sulfosulfuron] | 79.4 | 1260 | 15.8 | 
17 | COC(=O)c1csc(C)c1S(=O)(=O)NC(=O)n1nc(OC)n(C)c1=O [Thiencarbazone-methyl, thiencarbazone-methyl] |  |  |  | Herbicide injury on BRSNS [%] FM 202 (B. napus mutant FM 202; 20 g a.i./ha): 0%; Herbicide injury on BRSNS [%] SR002201 ([1]; 20 g a.i./ha): 90%
18 | COC(=O)c1sccc1S(=O)(=O)NC(=O)Nc1nc(C)nc(OC)n1 [Thifensulfuron-Methyl, thifensulfuron-methyl] | 158 | 631 | 31.6 | 
19 | COC(=O)c1cccc(C)c1S(=O)(=O)NC(=O)Nc1nc(OCC(F)(F)F)nc(N(C)C)n1 [Triflusulfuron, triflusulfuron-methyl] |  |  |  | Herbicide injury on BRSNS [%] FM 202 (B. napus mutant FM 202; 20 g a.i./ha): 0%; Herbicide injury on BRSNS [%] SR002201 ([1]; 20 g a.i./ha): 65%
